Measurements taken from patent publication US4175081A, “5-Substituted thiadiazole ureas” (priority 1977, dated 1979).

How the values were obtained:
Crabgrass (CG) [1] = assay: Pre-emergence herbicide test; format: in vivo, Digitaria sanquinalis; details: Digitaria sanguinalis, pre-emergence, 336 h, two weeks after treatment
Procedure: (§1) Crabgrass (CG)--Digitaria sanquinalis
(§2) All crop and weed species were planted individually in 3' plastic pots containing potting soil. Four seeds each of corn, cotton, and snapbeans were seeded to a depth equal to the diameter of the seed. All other species were surface seeded and sprinkled with screened soil in an amount sufficient to cover the seed. Immediately after planting, all pots were watered by sub-irrigation in greenhouse trays. Pots for the pre-emergence phase were seeded one day before treatment.
(§3) Spray hood constants required to deliver the above volume are as follows:
(§4) Formulations for spray applications were prepared in 50 ml volumes with the following three components: […]
(§5) Spray applications were made in a hood containing a removable belt and fixed spray nozzle. For passage through the spray hood, one pot of each specie (pre-emergence phase) was placed on the rear half of the flat. Treatments were removed to the greenhouse after spraying. Watering during the observation period was done only by sub-irrigation.
(§6) Two weeks after treatment, pre- and post-emergence injury or control was visually rated, and the results were as shown in the following tables. Pre-emergence data are provided in TABLE III and post-emergence data are provided in TABLE IV, for compounds having the formula illustrated in TABLE I. Correspondingly, pre-emergence and post-emergence data, respectively, are set forth in TABLES V AND VI, for compounds having the formula illustrated in TABLE II.

Johnson grass (JG) [2] = assay: Pre-emergence herbicide test; format: in vivo, Sorgum helepense; details: Sorghum halepense, 336 h, two weeks after treatment
Procedure: (§7) Johnson grass (JG)--Sorgum helepense
as §2
(§8) Compounds were tested at rates of application equivalent to 8 lbs. of actual compound per acre in a spray volume of 38 gallons per acre. Spray hood constants required to deliver the above volume are as follows:
(§9) Formulations for spray applications were prepared in 50 ml volumes with the following three components:
(§10) Formulations for the 4 lbs/acre rate were prepared by adjusting the amount of active ingredient accordingly.
as §5, §6

Barnyard grass (BG) [3] = assay: Pre-emergence herbicide test; format: in vivo; details: Echinochloa crus-galli, 336 h, two weeks after treatment
Procedure: (§11) Barnyard grass (BG)--Echinochloa crus-galli
as §2, §8, §9, §10, §5, §6

Turnip (TP) [4] = assay: Pre-emergence herbicide test; format: in vivo, Brassica sp.; details: Brassica rapa, pre-emergence, 336 h, two weeks after treatment
Procedure: (§12) Turnip (TP)--Brassica sp.
as §2, §3, §4, §5, §6

Cotton (CT) [5] = assay: Pre-emergence herbicide test; format: in vivo, Gossypium hirsutum var. DPL smooth leaf; details: Gossypium hirsutum, 336 h, two weeks after treatment
Procedure: (§13) Cotton (CT)--Gossypium hirsutum var. DPL smooth leaf
as §2, §8, §9, §10, §5, §6

Corn (CN) [6] = assay: Pre-emergence herbicide test; format: in vivo; details: Zea mays, 336 h, 2 lb/acre, two weeks after treatment
Procedure: as §2, §8, §9, §10, §5, §6

Bean (BN) [7] = assay: Pre-emergence herbicide test; format: in vivo, Phaseolus vulgaris var. Black Valentine; details: Phaseolus vulgaris, 336 h, two weeks after treatment
Procedure: (§14) Bean (BN)--Phaseolus vulgaris var. Black Valentine
as §2, §8, §9, §10, §5, §6

Crabgrass (CG) [8] = assay: Post-emergence herbicide test; format: in vivo, Digitaria sanquinalis; details: Digitaria sanguinalis, post-emergence, 336 h, two weeks after treatment; for pest or weed control: 2 lb/acre; for pest or weed control at 4483.4 g/ha: 4 lb/acre; for pest or weed control at 1120.85 g/ha: 1 lb/acre
Procedure: as §1, §2
(§15) Planting dates for the post-emergence phase were varied so that all seedlings would reach the desired stage of development simultaneously. The proper stage of seedling development for treatment in the post-emergence phase is as follows:
as §3, §4, §5, §6

Johnson grass (JG) [9] = assay: Post-emergence herbicide test; format: in vivo, Sorgum helepense; details: Sorghum halepense, 336 h, two weeks after treatment; for pest or weed control: 2 lb/acre; for pest or weed control at 4483.4 g/ha: 4 lb/acre; for pest or weed control at 1120.85 g/ha: 1 lb/acre
Procedure: as §7, §2, §15, §8, §9, §10, §5, §6

Barnyard grass (BG) [10] = assay: Post-emergence herbicide test; format: in vivo; details: Echinochloa crus-galli, 336 h, two weeks after treatment; for pest or weed control at 2241.7 g/ha: 2 lb/acre; for pest or weed control at 4483.4 g/ha: 4 lb/acre; for pest or weed control at 1120.85 g/ha: 1 lb/acre
Procedure: as §11, §2, §15, §8, §9, §10, §5, §6

Turnip (TP) [11] = assay: Post-emergence herbicide test; format: in vivo, Brassica sp.; details: Brassica rapa, post-emergence, 336 h, two weeks after treatment; for pest or weed control at 2241.7 g/ha: 2 lb/acre; for pest or weed control at 4483.4 g/ha: 4 lb/acre; for pest or weed control at 1120.85 g/ha: 1 lb/acre
Procedure: as §12, §2, §15
Pigweed and turnips: 1 or 2 true leaves above visible cotyledons.
as §3, §4, §5, §6

Cotton (CT) [12] = assay: Post-emergence herbicide test; format: in vivo, Gossypium hirsutum var. DPL smooth leaf; details: Gossypium hirsutum, post-emergence, 336 h, two weeks after treatment; for pest or weed control at 2241.7 g/ha: 2 lb/acre; for pest or weed control at 4483.4 g/ha: 4 lb/acre; for pest or weed control at 1120.85 g/ha: 1 lb/acre
Procedure: as §13, §2, §15
Cotton: first true leaf 1' in length; expanded cotyledons.
as §3, §9, §10, §5, §6

Corn (CN) [13] = assay: Post-emergence herbicide test; format: in vivo; details: Zea mays, 336 h, two weeks after treatment; for pest or weed control: 2 lb/acre; for pest or weed control at 4483.4 g/ha: 4 lb/acre; for pest or weed control at 1120.85 g/ha: 1 lb/acre
Procedure: as §2, §15, §8, §9, §10, §5, §6

Bean (BN) [14] = assay: Post-emergence herbicide test; format: in vivo, Phaseolus vulgaris var. Black Valentine; details: Phaseolus vulgaris, post-emergence, 336 h, two weeks after treatment; for pest or weed control at 2241.7 g/ha: 2 lb/acre; for pest or weed control at 4483.4 g/ha: 4 lb/acre; for pest or weed control at 1120.85 g/ha: 1 lb/acre
Procedure: as §14, §2, §15
Beans: primary leaves expanded, growing point at primary leaf nodes.
as §3, §9, §10, §5, §6

SMILES	pest or weed control (Crabgrass (CG) [8]) [%]	pest or weed control (Johnson grass (JG) [9]) [%]	pest or weed control at 2241.7 g/ha (Barnyard grass (BG) [10]) [%]	pest or weed control at 2241.7 g/ha (Turnip (TP) [11]) [%]	pest or weed control at 2241.7 g/ha (Cotton (CT) [12]) [%]	pest or weed control (Corn (CN) [13]) [%]	pest or weed control at 2241.7 g/ha (Bean (BN) [14]) [%]	pest or weed control at 4483.4 g/ha (Crabgrass (CG) [8]) [%]	pest or weed control at 4483.4 g/ha (Johnson grass (JG) [9]) [%]	pest or weed control at 4483.4 g/ha (Barnyard grass (BG) [10]) [%]	pest or weed control at 4483.4 g/ha (Turnip (TP) [11]) [%]	pest or weed control at 4483.4 g/ha (Cotton (CT) [12]) [%]	pest or weed control at 4483.4 g/ha (Corn (CN) [13]) [%]	pest or weed control at 4483.4 g/ha (Bean (BN) [14]) [%]	further results
C=CCSc1nnc(NC(=O)NC)s1 [Example 39, 1-Methyl-3-[5-Allythio-2-(1,3,4-Thiadiazolyl)] Urea]	80	80	90	80	100	50	100	–	–	–	–	–	–	–	pest or weed control (Crabgrass (CG) [1]; 2 lb/acre): 60%; pest or weed control at 2241.7 g/ha (Johnson grass (JG) [2]; 2 lb/acre): 30%; pest or weed control at 2241.7 g/ha (Barnyard grass (BG) [3]; 2 lb/acre): 50%; pest or weed control at 2241.7 g/ha (Turnip (TP) [4]; 2 lb/acre): 70%; pest or weed control at 2241.7 g/ha (Cotton (CT) [5]; 2 lb/acre): 50%; pest or weed control at 2241.7 g/ha (Corn (CN) [6]): 10%; pest or weed control at 2241.7 g/ha (Bean (BN) [7]; 2 lb/acre): 40%
CNC(=O)Nc1nnc(SC(C)C)s1 [Example 40, 1-Methyl-3-[5-Isopropylthio-2-(1,3,4-Thiadiazolyl)]Urea]	–	–	–	–	–	–	–	90	70	50	100	100	40	100	pest or weed control at 4483.4 g/ha (Crabgrass (CG) [1]; 4 lb/acre): 50%; pest or weed control at 4483.4 g/ha (Johnson grass (JG) [2]; 4 lb/acre): 30%; pest or weed control at 4483.4 g/ha (Barnyard grass (BG) [3]; 4 lb/acre): 40%; pest or weed control at 4483.4 g/ha (Turnip (TP) [4]; 4 lb/acre): 100%; pest or weed control at 4483.4 g/ha (Cotton (CT) [5]; 4 lb/acre): 30%; pest or weed control at 4483.4 g/ha (Bean (BN) [7]; 4 lb/acre): 10%
CNC(=O)Nc1nnc(SCC(C)C)s1 [Example 44]	90	80	90	80	100	60	100	–	–	–	–	–	–	–	pest or weed control at 1120.85 g/ha (Crabgrass (CG) [8]): 80%; pest or weed control at 1120.85 g/ha (Johnson grass (JG) [9]): 60%; pest or weed control at 1120.85 g/ha (Barnyard grass (BG) [10]): 80%; pest or weed control at 1120.85 g/ha (Turnip (TP) [11]): 40%; pest or weed control at 1120.85 g/ha (Cotton (CT) [12]): 100%; pest or weed control at 1120.85 g/ha (Corn (CN) [13]): 60%; pest or weed control at 1120.85 g/ha (Bean (BN) [14]): 80%
CCCCSc1nnc(NC(=O)NC)s1 [Example 45]	90	90	80	70	100	60	100	–	–	–	–	–	–	–	pest or weed control at 1120.85 g/ha (Crabgrass (CG) [8]): 90%; pest or weed control at 1120.85 g/ha (Johnson grass (JG) [9]): 60%; pest or weed control at 1120.85 g/ha (Barnyard grass (BG) [10]): 90%; pest or weed control at 1120.85 g/ha (Turnip (TP) [11]): 50%; pest or weed control at 1120.85 g/ha (Cotton (CT) [12]): 100%; pest or weed control at 1120.85 g/ha (Corn (CN) [13]): 70%; pest or weed control at 1120.85 g/ha (Bean (BN) [14]): 90%
CNC(=O)Nc1nnc(SCc2ccccc2)s1 [Example 46]	–	–	–	–	–	–	–	70	70	70	100	100	30	90	–
CCCCCCS(=O)(=O)c1nnc(NC(=O)NC)s1 [Example 58]	–	–	–	–	–	–	–	50	30	20	80	50	20	70	–
CCCCCSc1nnc(NC(=O)NC)s1 [Example 59]	–	–	–	–	–	–	–	90	80	70	100	100	40	100	–
